Data as given in PMC9481563, “Structural insights into the pSer/pThr dependent regulation of the SHP2 tyrosine phosphatase in insulin and CD28 signaling” (Nature Communications, 2022).
Changes are numbered by the printed parent chain.

Legend:
Format in all cases: binding
Details in all cases: competitive FP titration vs CF-ppIRS1 100 nM, protein fixed; n = 3 technical replicates
[1] = molecular target: T1, inactive SHP2 catalytic domain Loopinv (R362E) (Homo sapiens, UniProt Q06124, C459S/R362E); assay: Fluorescence polarization titrations, SHP2 Loopinv
T1 construct: SHP2 R362E (Loopinv); 219-528 + C459S; His6 (N); made in house; host or cells: E. coli BL21 (DE3)
T1 sequence (Q06124 219-528 R362E/C459S): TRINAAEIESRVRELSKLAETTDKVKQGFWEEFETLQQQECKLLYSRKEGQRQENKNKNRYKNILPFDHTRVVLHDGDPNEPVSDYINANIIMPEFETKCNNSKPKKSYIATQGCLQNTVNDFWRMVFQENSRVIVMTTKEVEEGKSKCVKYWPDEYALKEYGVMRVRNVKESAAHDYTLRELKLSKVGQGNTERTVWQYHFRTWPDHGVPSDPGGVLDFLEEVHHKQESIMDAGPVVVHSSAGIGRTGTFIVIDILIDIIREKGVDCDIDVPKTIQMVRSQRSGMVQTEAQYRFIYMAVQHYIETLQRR
Text: (§1) The two SH2 domains of PI3KR1 (UniProt P27986; nSH2: 321−433 cSH2: 614–724) were cloned from HEK293T cDNA pool, and subsequently ligated into a modified pET vector encoding maltose binding protein (MBP) tag on the N-terminal and a hexa-His tag on the C-terminal end of the construct. Similarly, the catalytic, tyrosine phosphatase domains of PTPRε (P23469 first domain: 107–399) and PTP1B (P18031; 1–229) were cloned from a HEK293T cDNA pool, and inserted into a pBH4 vector encoding an N-terminal His6 tag (for the final binding experiments, an MBP-tagged version of PTPRε was employed). […] Surface mutants of SHP2 were constructed from the SHP2-C459S plasmid, using the QuickChange protocol. The D425A and H426A catalytic site mutants and all enzymatically active surface mutants were generated similarly, but from the plasmid encoding the wild-type catalytic domain of SHP2. Wild-type C-terminal FLAG-tagged human IRS1 was cloned between HindIII-NotI sites of pcDNA3.1(+) vector (#V79020 Invitrogen, Waltham MA USA). Ser/Ala mutant IRS1 was generated by replacing the region of S616/S636/S666/S736 positions with a cassette carrying S616A/S636A/S666A/S736A mutations. All constructs were validated by complete Sanger sequencing before protein expression and purification. The oligonucleotide sequences used are shown on Supplementary table 4.
(§2) Fluorescence polarization (FP) assays were performed as follows: In direct titration experiments, protein concentration was varied in an 1/2 or 2/3 dilution series (90 µl protein+ 45 µl mix), while concentration of the reporter peptide (CF-ppIRS1) was kept constant at 100 nM. In competitive titrations, the labelled CF-ppIRS1 peptide and protein were both fixed (at 50–80% saturation) and the unlabelled competitor peptide concentration was varied. Fluorescence polarization was always measured in triplicates, on black Corning low volume round bottom 384-well plates (with 10 ul volumes), using a BioTek Cytatation 5 reader, with the green fluorescent protein (GFP) cube filter set (ex: 485/20, em: 528/20, gain: 50, height: 7.5). Fluorescence polarization data was evaluated on Origin 2018. The dissociation constants (Kd) were determined by using the appropriate quadratic and cubic equations inserted as a user-defined function and applying nonlinear fit until convergence. The fitting formulae are shown at Supplementary note 1. Kd ratio distributions for Fig. 6 were calculated using a Monte-Carlo approach (Supplementary note 2).
(§3) Supplementary note 1. Curve fitting of fluorescence polarization (FP) measurements.
(§4) To evaluate polarization values from direct and competitive titrations, we used the following fitting formulae in Origin 2018, as detailed below.
(§5) Direct titration curves were fitted according to the following formula: […]
(§6) Where Imin is the minimal anisotropy, Imax is the (asymptotically estimated) maximal intensity. K0 is the starting concentration of the protein, while T0 is the (fixed) concentration of the labelled peptide and Kd is the dissociation constant.
(§7) Competitive titration curves were fitted with a different formula (In addition to those defined above, constants KdT KdB B0 T0 and D0 here refer to the Kd derived from the direct titration, the unknown Kd of the analyte, the labelled peptide concentration, the competitor peptide concentration as well as the protein concentration, respectively).
(§8) The ± sign refers to two different scenarios, depending on the sign of discriminant (KdT > KdB or […]). For unknown analytes, the choice of sign is not arbitrary, as the fitting will not converge unless the appropriate formula is chosen: […]
(§9) Where A, B and C correspond to the following expressions: […]

[2] = molecular target: T2, inactive SHP2 catalytic domain Hillmut (K274E) (Homo sapiens, UniProt Q06124, C459S/K274E); assay: Fluorescence polarization titrations, SHP2 Hillmut
T2 construct: SHP2 K274E (Hillmut); 219-528 + C459S; His6 (N); made in house; host or cells: E. coli BL21 (DE3)
T2 sequence (Q06124 219-528 K274E/C459S): T1 sequence (Q06124 219-528 R362E/C459S) with K56E, E144R
Text: as §1, §2, §3, §4, §5, §6, §7, §8, §9

[3] = molecular target: T3, inactive SHP2 catalytic domain Pocketless (K260E+R265S) (Homo sapiens, UniProt Q06124, C459S/K260E/R265S); assay: Fluorescence polarization titrations, SHP2 Pocketless
T3 construct: SHP2 K260E+R265S (Pocketless); 219-528 + C459S; His6 (N); made in house; host or cells: E. coli BL21 (DE3)
T3 sequence (Q06124 219-528 K260E/R265S/C459S): T1 sequence (Q06124 219-528 R362E/C459S) with K42E, R47S, E144R
Text: as §1, §2, §3, §4, §5, §6, §7, §8, §9

Row | Structure (SMILES) | Kd [1] [µM] | Kd [2] [µM] | Kd [3] [µM]
1 | CSCC[C@H](NC(=O)[C@H](Cc1ccc(OP(=O)(O)O)cc1)NC(=O)[C@H](CC(=O)O)NC(=O)[C@H](CO)NC(=O)[C@H](Cc1c[nH]cn1)NC(=O)[C@H](CC(C)C)NC(=O)[C@H](CC(C)C)NC(=O)[C@H](CCCNC(=N)N)NC(=O)[C@H](CO)NC(=O)[C@@H](N)CCCNC(=N)N)C(=O)N[C@@H](CC(N)=O)C(=O)N[C@@H](CCSC)C(=O)N[C@H](C(=O)N1CCC[C@H]1C(=O)N[C@@H](CCCNC(=N)N)C(=O)N[C@@H](CCCNC(=N)N)C(=O)O)[C@@H](C)O [p0CD28] | 45.7 ± 7.49 | 54.6 ± 5.12 | 34.8 ± 2.25
2 | CSCC[C@H](NC(=O)[C@@H]1CCCN1C(=O)[C@H](CCSC)NC(=O)[C@H](Cc1ccc(OP(=O)(O)O)cc1)NC(=O)[C@H](CC(=O)O)NC(=O)CNC(=O)[C@H](CO)NC(=O)CNC(=O)[C@H](CCCCN)NC(=O)[C@H](CCCNC(=N)N)NC(=O)CN)C(=O)N[C@@H](CO)C(=O)N1CCC[C@H]1C(=O)N[C@@H](CCCCN)C(=O)N[C@@H](CO)C(=O)O [p0IRS1] | 61.8 ± 16.2 | 83.9 ± 2.58 | 191 ± 15.5
3 | CC[C@H](C)[C@H](NC(=O)[C@H](CC(N)=O)NC(=O)[C@@H](NC(=O)[C@H](Cc1ccc(OP(=O)(O)O)cc1)NC(=O)[C@H](CCC(=O)O)NC(=O)CNC(=O)[C@@H]1CCCN1C(=O)[C@H](CO)NC(=O)[C@H](CCCCN)NC(=O)[C@@H]1CCCN1C(=O)[C@@H](N)CCC(=O)O)C(C)C)C(=O)N[C@@H](CCC(=O)O)C(=O)N[C@@H](Cc1ccccc1)C(=O)O [p0SRev-IRS1] | 9.35 ± 1.54 | 14.8 ± 0.88 | 17.7 ± 2.13
4 | CSCC[C@H](NC(=O)[C@H](Cc1ccc(OP(=O)(O)O)cc1)NC(=O)[C@H](CC(=O)O)NC(=O)[C@H](CO)NC(=O)[C@H](Cc1c[nH]cn1)NC(=O)[C@H](CC(C)C)NC(=O)[C@H](CC(C)C)NC(=O)[C@H](CCCNC(=N)N)NC(=O)[C@H](CO)NC(=O)[C@@H](N)CCCNC(=N)N)C(=O)N[C@@H](CC(N)=O)C(=O)N[C@@H](CCSC)C(=O)N[C@H](C(=O)N1CCC[C@H]1C(=O)N[C@@H](CCCNC(=N)N)C(=O)N[C@@H](CCCNC(=N)N)C(=O)O)[C@@H](C)OP(=O)(O)O [ppCD28] | 15.2 ± 0.49 | 11 ± 0.57 | 5.63 ± 0.29
5 | CSCC[C@H](NC(=O)[C@@H]1CCCN1C(=O)[C@H](CCSC)NC(=O)[C@H](Cc1ccc(OP(=O)(O)O)cc1)NC(=O)[C@H](CC(=O)O)NC(=O)CNC(=O)[C@H](CO)NC(=O)CNC(=O)[C@H](CCCCN)NC(=O)[C@H](CCCNC(=N)N)NC(=O)CN)C(=O)N[C@@H](COP(=O)(O)O)C(=O)N1CCC[C@H]1C(=O)N[C@@H](CCCCN)C(=O)N[C@@H](CO)C(=O)O [ppIRS1] | 7.53 ± 1.1 | 2.23 ± 0.14 | 6.36 ± 0.28
6 | CC[C@H](C)[C@H](NC(=O)[C@H](CC(N)=O)NC(=O)[C@@H](NC(=O)[C@H](Cc1ccc(OP(=O)(O)O)cc1)NC(=O)[C@H](CCC(=O)O)NC(=O)CNC(=O)[C@@H]1CCCN1C(=O)[C@H](COP(=O)(O)O)NC(=O)[C@H](CCCCN)NC(=O)[C@@H]1CCCN1C(=O)[C@@H](N)CCC(=O)O)C(C)C)C(=O)N[C@@H](CCC(=O)O)C(=O)N[C@@H](Cc1ccccc1)C(=O)O [ppSRev-IRS1] | 0.67 ± 0.16 | 2.56 ± 0.28 | 1.91 ± 0.2
